According to patent publication US20110039879A1, “METHODS FOR INCREASING WHITE BLOOD CELLS” (FibroGen ,Inc., priority 2007, published 2011):

Experiments:
Format in all cases: in vivo, Swiss-Webster mice
[1] = system: total white blood cell (WBC); test: Total white blood cells by complete blood count on day 8, dosing day 1, 3, 5; details: Mus musculus, 192 h, mice, oral gavage, measured on day 8, read-out: Total WBC % Increase Over Control; for change in vivo at 200 mg/kg: 200 mg/kg on day 1, day 3 and day 5; for change in vivo at 100 mg/kg: 100 mg/kg on day 1, day 3 and day 5
Method: (§1) To examine the effect of compounds and methods of the present invention on increasing white blood cells, the following studies were performed. In one series of experiments, male Swiss-Webster mice were administered various compounds of the present invention via oral gavage using a ball-tipped gavage needle. […] Animals were dosed once daily for 3 or 4 days. Six hours after the final dosing, 200 μl blood samples were collected and total white blood cell, neutrophil, and lymphocyte levels were measured by complete blood count (CBC) using a CellDyn cell analyzer (Abbott Laboratories).
(§2) In another series of experiments, male Swiss-Webster mice were administered various compounds (see Table 7 and Table 8) of the present invention via oral gavage using a ball-tipped gavage needle. […] Total WBC, neutrophil, lymphocyte, and monocyte levels were measured in mice as described above on day 8 following administration of compound on day 1, day 3, and day 5.

neutrophils [2] = test: Neutrophils by complete blood count on day 8, dosing day 1, 3, 5; details: Mus musculus, Neutrophil, 192 h, mice, oral gavage, measured on day 8, read-out: Neutrophils % Increase Over Control; for change in vivo at 200 mg/kg: 200 mg/kg on day 1, day 3 and day 5; for change in vivo at 100 mg/kg: 100 mg/kg on day 1, day 3 and day 5
Method: as §1, §2

lymphocytes = test: Lymphocytes by complete blood count on day 8, dosing day 1, 3, 5; details: mice, oral gavage, measured on day 8
Method: as §1, §2

monocytes = test: Monocytes by complete blood count on day 8, dosing day 1, 3, 5; details: mice, oral gavage, measured on day 8
[3] = system: total white blood cell (WBC); test: Total white blood cells by complete blood count on day 8, dosing day 1, 3, 5; details: mice, oral gavage, measured on day 8
neutrophils [4] = test: Neutrophils by complete blood count on day 8, dosing day 1, 3, 5; details: mice, oral gavage, measured on day 8
[5] = Mus musculus, Lymphocyte, 192 h, 200 mg/kg on day 1, day 3 and day 5, read-out: Lymphocytes % Increase Over Control
[6] = 200 mg/kg on day 1, day 3 and day 5
[7] = Mus musculus, Monocyte, 192 h, 200 mg/kg on day 1, day 3 and day 5, read-out: Monocytes % Increase Over Control
[8] = Mus musculus, Lymphocyte, 192 h, 100 mg/kg on day 1, day 3 and day 5, read-out: Lymphocytes % Increase Over Control
[9] = 100 mg/kg on day 1, day 3 and day 5
[10] = Mus musculus, Monocyte, 192 h, 100 mg/kg on day 1, day 3 and day 5, read-out: Monocytes % Increase Over Control
[11] = 60 mg/kg on day 1, day 3 and day 5

SMILES | change in vivo at 200 mg/kg [1] [%] | change in vivo at 200 mg/kg (neutrophils [2]) [%] | change in vivo at 200 mg/kg (lymphocytes; [5]) [%] | Lymphocytes (lymphocytes; [6]) | change in vivo at 200 mg/kg (monocytes; [7]) [%] | Monocytes (monocytes; [6]) | Total WBC [3, 6] | Neutrophils (neutrophils [4]; [6]) | change in vivo at 100 mg/kg [1] [%] | change in vivo at 100 mg/kg (neutrophils [2]) [%] | change in vivo at 100 mg/kg (lymphocytes; [8]) [%] | Lymphocytes (lymphocytes; [9]) | Monocytes (monocytes; [9]) | Total WBC [3, 9] | Neutrophils (neutrophils [4]; [9]) | also measured
O=C(O)CNC(=O)c1c(O)c2cccn2n(Cc2ccc(C(F)(F)F)cc2)c1=O [Compound BG, {[4-Hydroxy-2-oxo-1-(4-trifluoromethyl-benzyl)-1,2-dihydro-pyrrolo[1,2-b]pyridazine-3-carbonyl]-amino}-acetic acid] | 252 | 22 | 296 | 24.4 10^3 cells/μl | 60 | 0.2 10^3 cells/μl | 26.2 10^3 cells/μl | 1.0 10^3 cells/μl |  |  |  |  |  |  |  | 
N#Cc1nc(C(=O)NCC(=O)O)c(O)c2cc(Oc3ccc(F)cc3)ccc12 [Compound D, {[1-Cyano-6-(4-fluoro-phenoxy)-4-hydroxy-isoquinoline-3-carbonyl]-amino}-acetic acid] |  |  |  |  |  |  |  |  | 152 | 242 | 140 | 9.3 10^3 cells/μl | 0.2 10^3 cells/μl | 10.8 10^3 cells/μl | 1.3 10^3 cells/μl | 
Cc1cccc(C)c1Oc1ccc2c(C#N)nc(C(=O)NCC(=O)O)c(O)c2c1 [Compound E, {[1-Cyano-6-(2,6-dimethyl-phenoxy)-4-hydroxy-isoquinoline-3-carbonyl]-amino}-acetic acid] | 221 | 54 | 245 | 15.8 10^3 cells/μl | 100 | 0.1 10^3 cells/μl | 16.6 10^3 cells/μl | 0.8 10^3 cells/μl |  |  |  |  |  |  |  | 
N#Cc1nc(C(=O)NCC(=O)O)c(O)c2c(Cl)cn(Cc3ccccc3)c12 [Compound F, [(1-Benzyl-3-chloro-7-cyano-4-hydroxy-1H-pyrrolo[2,3-c]pyridine-5-carbonyl)-amino]-acetic acid] |  |  |  |  |  |  |  |  | 81 | 23 | 86 | 11.6 10^3 cells/μl | 0.1 10^3 cells/μl | 12.6 10^3 cells/μl | 0.7 10^3 cells/μl | 
N#Cc1nc(C(=O)NCC(=O)O)c(O)c2c(Oc3ccc(F)cc3)cccc12 [Compound G, {[1-Cyano-5-(4-fluoro-phenoxy)-4-hydroxy-isoquinoline-3-carbonyl]-amino}-acetic acid] | 138 | 48 | 148 | 13.2 10^3 cells/μl | 317 | 0.2 10^3 cells/μl | 14.3 10^3 cells/μl | 0.8 10^3 cells/μl |  |  |  |  |  |  |  | 
CC(C)Oc1ccc2c(O)c(C(=O)NCC(=O)O)nc(C#N)c2c1 [Compound H, [(1-Cyano-4-hydroxy-7-isopropoxy-isoquinoline-3-carbonyl)-amino]-acetic acid] | 783 | 6 | 963 | 37.0 10^3 cells/μl |  | 0.1 10^3 cells/μl | 37.8 10^3 cells/μl | 0.7 10^3 cells/μl | 120 | 135 | 120 | 7.7 10^3 cells/μl | 0.1 10^3 cells/μl | 9.4 10^3 cells/μl | 1.6 10^3 cells/μl | 
N#Cc1nc(C(=O)NCC(=O)O)c(O)c2ccn(Cc3ccccc3F)c12 [Compound I, {[7-Cyano-1-(2-fluoro-benzyl)-4-hydroxy-1H-pyrrolo[2,3-c]pyridine-5-carbonyl]-amino}-acetic acid] |  |  |  |  |  |  |  |  | 95 | 17 | 127 | 12.1 10^3 cells/μl | 0.2 10^3 cells/μl | 13.1 10^3 cells/μl | 0.8 10^3 cells/μl | change in vivo at 100 mg/kg (monocytes; [10]): 425%
Cc1cc(Cl)cc(C)c1Oc1ccc2c(C#N)nc(C(=O)NCC(=O)O)c(O)c2c1 [Compound J, {[6-(4-Chloro-2,6-dimethyl-phenoxy)-1-cyano-4-hydroxy-isoquinoline-3-carbonyl]-amino}-acetic acid] |  |  |  |  |  |  |  |  | 208 | 8 | 236 | 21.7 10^3 cells/μl | 0.3 10^3 cells/μl | 23.0 10^3 cells/μl | 0.9 10^3 cells/μl | change in vivo at 100 mg/kg (monocytes; [10]): 300%
N#Cc1nc(C(=O)NCC(=O)O)c(O)c2c(Oc3ccc(Cl)cc3)cccc12 [Compound K, {[5-(4-Chloro-phenoxy)-1-cyano-4-hydroxy-isoquinoline-3-carbonyl]-amino}-acetic acid] | 491 | 34 | 562 | 31.8 10^3 cells/μl | 233 | 0.4 10^3 cells/μl | 33.0 10^3 cells/μl | 0.8 10^3 cells/μl |  |  |  |  |  |  |  | 
C[C@H](c1ccccc1)n1c(Cl)c(Cl)c2c(O)c(C(=O)NCC(=O)O)nc(C#N)c21 [Compound L, {[(R)-2,3-Dichloro-7-cyano-4-hydroxy-1-(1-phenyl-ethyl)-1H-pyrrolo[2,3-c]pyridine-5-carbonyl]-amino}-acetic acid] |  |  |  |  |  |  |  |  | 281 | 469 | 262 | 18.0 10^3 cells/μl | 0.0 10^3 cells/μl | 22.8 10^3 cells/μl | 4.8 10^3 cells/μl | 
COc1ccc(Oc2cccc3c(C#N)nc(C(=O)NCC(=O)O)c(O)c23)cc1 [Compound N, {[1-Cyano-4-hydroxy-5-(4-methoxy-phenoxy)-isoquinoline-3-carbonyl]-amino}-acetic acid] | 125 | 60 | 138 | 10.7 10^3 cells/μl | 157 | 0.2 10^3 cells/μl | 12.0 10^3 cells/μl | 0.9 10^3 cells/μl |  |  |  |  |  |  |  | 
N#Cc1nc(C(=O)NCC(=O)O)c(O)c2ccn(Cc3ccc(F)cc3)c12 [Compound O, {[7-Cyano-1-(4-fluoro-benzyl)-4-hydroxy-1H-pyrrolo[2,3-c]pyridine-5-carbonyl]-amino}-acetic acid] |  |  |  |  |  |  |  |  |  |  |  |  |  |  |  | change in vivo at 60 mg/kg [1, 11]: 86%; change in vivo at 60 mg/kg (neutrophils [2]; [11]): -3%; change in vivo at 60 mg/kg (lymphocytes; Mus musculus, Lymphocyte, 192 h, 60 mg/kg on day 1, day 3 and day 5, read-out: Lymphocytes % Increase Over Control): 102%; Lymphocytes (lymphocytes; [11]): 10.9 10^3 cells/μl; change in vivo at 60 mg/kg (monocytes; Mus musculus, Monocyte, 192 h, 60 mg/kg on day 1, day 3 and day 5, read-out: Monocytes % Increase Over Control): 140%; Monocytes (monocytes; [11]): 0.2 10^3 cells/μl; Total WBC [3, 11]: 11.9 10^3 cells/μl; Neutrophils (neutrophils [4]; [11]): 0.8 10^3 cells/μl
N#Cc1nc(C(=O)NCC(=O)O)c(O)c2c(Cl)cn(Cc3ccc(F)cc3)c12 [Compound P, {[3-Chloro-7-cyano-1-(4-fluoro-benzyl)-4-hydroxy-1H-pyrrolo[2,3-c]pyridine-5-carbonyl]-amino}-acetic acid] |  |  |  |  |  |  |  |  | 54 | 18 | 60 | 9.1 10^3 cells/μl | 0.1 10^3 cells/μl | 10.2 10^3 cells/μl | 0.8 10^3 cells/μl | change in vivo at 100 mg/kg (monocytes; [10]): 33%
